Read-outs that look alike come from different tables or passages of the source.
Legend:
[1] = molecular target: T1, PfFNT (Plasmodium falciparum, UniProt O77389); assay: Yeast-based PfFNT 14C-lactate transport assay; format: cell-based
T1 construct: expressed in transfected cells; membranes solubilized
T1 sequence (O77389 1-309): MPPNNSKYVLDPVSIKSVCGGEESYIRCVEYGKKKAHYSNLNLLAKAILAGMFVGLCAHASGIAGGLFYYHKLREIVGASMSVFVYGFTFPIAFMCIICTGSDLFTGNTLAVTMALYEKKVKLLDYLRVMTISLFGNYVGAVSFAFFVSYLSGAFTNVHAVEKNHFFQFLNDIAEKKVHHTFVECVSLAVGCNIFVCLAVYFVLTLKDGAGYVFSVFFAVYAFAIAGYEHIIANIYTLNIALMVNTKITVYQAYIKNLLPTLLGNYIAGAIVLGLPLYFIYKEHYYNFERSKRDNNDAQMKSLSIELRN
Description: Lactate transport functionality of PfFNT was assayed as described before.[4] Briefly, Saccharomyces cerevisiae W303-1A jen1Δady2Δcells[32] (MATa, can1-100, ade2-loc, his3-11-15, leu2-3,-112, trp1-1-1, ura3-1, jen1::kanMX4, ady2::hphMX4) kindly provided by M. Casal expressing PfFNT was grown at 29 °C to an OD600 of 1 (±0.1). Harvested cells were resuspended to an OD600 of 50 (±5) in 50 mM HEPES/Tris, pH 6.8 (±0.1). 10–15 min prior to the assay, 80 μL of yeast suspension were added to 1 μL of DMSO with or without inhibitor in a 1.5 mL reaction tube at 18 °C. Twenty μL of L-lactate solution spiked with [1-^14C]-L-lactate (Hartmann Analytic) was added yielding a 1 mM inward gradient with 0.04 μCi label. Transport was stopped after 30 s by abrupt dilution with 1 mL of ice-cold water, vacuum filtration via GF/C filter membranes (Whatman), and washing with 7 mL of ice-cold water. The radio label was analyzed by liquid scintillation counting in 3 mL of scintillation cocktail (Rotiszint eco plus, Carl Roth) using a Packard TriCarb 2900 TR (PerkinElmer Inc.).
Transport assays in yeast were done in triplicate biological replicates. At least nine technical replicates were measured around the IC50 value, concentrations with no or full inhibition were determined from at least three technical replicates. EC50-values were determined from 2 to 4 biological replicates. IC50 and EC50 curves were fitted by the Hill equation with variable slope (Graph Pad Prism 10). Error bars denote ± SEM (for n ≥ 3) or ± range (for n = 2). For the EC50-value of 7a the error of the fitting of the curve is given. Cytotoxicity was determined from biological triplicates; error is shown as SEM.

[2] = test system: Plasmodium falciparum 3D7 parasites; assay: P. falciparum 3D7 culture growth assay in erythrocytes (in vitro activity); format: cell-based; settings: for EC50 / activity at 0.05 µM / activity at 0.1 µM / activity at 0.2 µM: Plasmodium falciparum, 3D7, Erythrocyte, 48 h; for EC50: read-out: EC50 (in vitro, 3D7); for activity at 0.05 µM: 50 nM compound, read-out: % Growth at 50 nM (in vitro, 3D7); for activity at 0.05 µM / activity at 0.1 µM / activity at 0.2 µM: % of untreated control; for activity at 0.1 µM: 100 nM compound, read-out: % Growth at 100 nM (in vitro, 3D7); for activity at 0.2 µM: 200 nM compound, read-out: % Growth at 200 nM (in vitro, 3D7)
Description: The parasitemia was measured using an LSR II FACS (BD Biosciences) as described.[34],[35] Growth was assessed as % of untreated control. EC50 curves were plotted using Graph Pad Prism.
Transport assays in yeast were done in triplicate biological replicates. At least nine technical replicates were measured around the IC50 value, concentrations with no or full inhibition were determined from at least three technical replicates. […] IC50 and EC50 curves were fitted by the Hill equation with variable slope (Graph Pad Prism 10). Error bars denote ± SEM (for n ≥ 3) or ± range (for n = 2). […] Cytotoxicity was determined from biological triplicates; error is shown as SEM.

[3] = molecular target: T1, PfFNT; assay: Fluorescence cross-correlation spectroscopy (FCCS) competition binding to solubilized PfFNT-GFP
Description: FCCS measurements were conducted and analyzed as before.[20],[30] Briefly, membranes of stably transfected cells expressing PfFNT with a C-terminal GFP (green) were solubilized. BH267.meta 2 fused with DY647 (red) was used as a tracer to monitor the binding of compounds in a competition assay. Assays were done in […] glass bottom plates (cat. no. PS96B-G175, SWISSCI, Switzerland) using a plate reader (Insight, Evotec Technologies, Germany) fitted with a U-Apo300 40× water immersion lens, NA 1.15 (Olympus, Japan). Excitation was done with an argon-ion laser (488 nm) and a helium–neon laser (633 nm). Fluorescence fluctuations were recorded 10 times for 5 s per sample and fitted using FCS+ plus Analyze (PerkinElmer software). Initially, IC50 values were determined from the concentration of the dual labeled complex titrated against a competitor in a range of 100 pM to 100 μM (Figure S1). Then, Ki values were calculated using the Cheng Prusoff equation[31] based on the previously determined KD value for the BH267.meta-DY647 tracer.[20]

[4] = 14C-lactate transport, PfFNT wild type, read-out: IC50 (transport, yeast)

| SMILES | IC50 [1, 4] [µM] | EC50 ([2]; cultures in erythrocytes) [nM] | Ki [3] [nM] | IC50 [1] [µM] | EC50 [2] [nM] | Ki ([3]; competition against BH267.meta-DY647 tracer, Cheng Prusoff, read-out: Ki (FCCS, protein)) [nM] | activity at 0.05 µM [2] [%] | activity at 0.1 µM [2] [%] | activity at 0.2 µM [2] [%] | times lower in vitro activity (vs 7e) ([2]; 3D7) |
| --- | --- | --- | --- | --- | --- | --- | --- | --- | --- | --- |
| O=C(/C=C(\O)C(F)(F)c1ccccc1)c1cccnc1 [3a, 4,4-Difluoro-3-hydroxy-4-phenyl-1-(pyridin-3-yl)but-2-en-1-one] | 1.14 ± 0.2 | 36600 ± 11100 | 5840 ± 960 |  |  |  |  |  |  |  |
| O=C(/C=C(\O)C(F)(F)C(F)(F)C(F)(F)F)c1cccnc1 [3b, 4,4,5,5,6,6,6-Heptafluoro-3-hydroxy-1-(pyridin-3-yl)hex-2-en-1-on] |  |  |  | 0.34 ± 0.05 | 1170 ± 30 | 30 ± 3 |  |  |  |  |
| COC(F)(F)C(F)(F)/C(O)=C/C(=O)c1cccnc1 [3c, 4,4,5,5-Tetrafluoro-3-hydroxy-5-methoxy-1-(pyridin-3-yl)pent-2-en-1-one] | 0.31 ± 0.01 | 3390 ± 10 | 93 ± 2 |  |  |  |  |  |  |  |
| O=C(/C=C(\O)C(F)(F)C(F)(F)Cl)c1cccnc1 [3d, 5-Chloro-4,4,5,5-tetrafluoro-3-hydroxy-1-(pyridin-3-yl)pent-2-en-1-one] | 0.18 ± 0.03 | 350 ± 30 | 37 ± 21 |  |  |  |  |  |  |  |
| FC(F)(F)C(F)(F)c1nc(-c2cccnc2)n[nH]1 [4a, 3-[5-(1,1,2,2,2-Pentafluoroethyl)-1H-1,2,4-triazol-3-yl]pyridine] | 8.44 ± 1.85 |  | 1610 ± 298 |  |  |  |  |  |  |  |
| FC(F)(F)C(F)(F)c1cc(-c2cccnc2)n[nH]1 [4b, 3-[5-(1,1,2,2,2-Pentafluoroethyl)-1H-pyrazol-3-yl]pyridine] | ~1000 |  | > 80000 |  |  |  |  |  |  |  |
| O=C(/C=C(\O)C(F)(F)C(F)(F)F)c1ccco1 [5a, 4,4,5,5,5-Pentafluoro-1-(furan-2-yl)-3-hydroxypent-2-en-1-one] | 0.17 ± 0.06 | 1980 ± 40 | 37 ± 5 |  |  |  |  |  |  |  |
| O=C(/C=C(\O)C(F)(F)C(F)(F)F)c1ccoc1 [5b, 4,4,5,5,5-Pentafluoro-1-(furan-3-yl)-3-hydroxypent-2-en-1-one] | 0.1 ± 0.01 | 860 ± 80 | 72 ± 6 |  |  |  |  |  |  |  |
| O=C(/C=C(\O)C(F)(F)C(F)(F)F)c1cccs1 [5c, 4,4,5,5,5-Pentafluoro-3-hydroxy-1-(thiophen-2-yl)pent-2-en-1-one] | 0.11 ± 0.01 | 1920 ± 170 | 45 ± 25 |  |  |  |  |  |  |  |
| O=C(/C=C(\O)C(F)(F)C(F)(F)F)c1ccsc1 [5d, 4,4,5,5,5-Pentafluoro-3-hydroxy-1-(thiophen-3-yl)pent-2-en-1-one] | 0.15 ± 0.01 | 1870 ± 150 | 85 ± 4 |  |  |  |  |  |  |  |
| O=C(/C=C(\O)C(F)(F)C(F)(F)F)c1ccc(NCc2ccccc2)nc1 [7a, 1-[6-(Benzylamino)pyridin-3-yl]-4,4,5,5,5-pentafluoro-3-hydroxypent-2-en-1-one] | 0.51 ± 0.15 | 77.9 | 32 ± 15 |  |  |  | 71 | 32 | 14 |  |
| Nc1ccc(C(=O)/C=C(\O)C(F)(F)C(F)(F)F)cn1 [7b, 1-(6-Aminopyridin-3-yl)-4,4,5,5,5-pentafluoro-3-hydroxypent-2-en-1-one] | 0.19 ± 0.02 |  | 31 ± 6 |  |  |  | 79 | 65 | 29 | at least 3 times |
| CNc1ccc(C(=O)/C=C(\O)C(F)(F)C(F)(F)F)cn1 [7c, 4,4,5,5,5-Pentafluoro-3-hydroxy-1-(6-(methylamino)pyridin-3-yl)pent-2-en-1-one] | 0.13 ± 0.02 |  | 36 ± 12 |  |  |  | 103 | 97 | 85 |  |
| CCNc1ccc(C(=O)/C=C(\O)C(F)(F)C(F)(F)F)cn1 [7d, 1-(6-(Ethylamino)pyridin-3-yl)-4,4,5,5,5-pentafluoro-3-hydroxypent-2-en-1-one] | 0.12 ± 0.01 |  | 21 ± 5 |  |  |  | 45 | 13 | 6 |  |
| CCCCNc1ccc(C(=O)/C=C(\O)C(F)(F)C(F)(F)F)cn1 [7f, 1-(6-(Butylamino)pyridin-3-yl)-4,4,5,5,5-pentafluoro-3-hydroxypent-2-en-1-one] | 0.33 ± 0.01 |  | 27 ± 4 |  |  |  | 25 | 15 | 10 |  |
| CCCCCNc1ccc(C(=O)/C=C(\O)C(F)(F)C(F)(F)F)cn1 [7g, 4,4,5,5,5-Pentafluoro-3-hydroxy-1-(6-(pentylamino)pyridin-3-yl)pent-2-en-1-one] | 0.39 ± 0.03 |  | 13 ± 1 |  |  |  | 37 | 12 | 6 |  |
| COCCCNc1ccc(C(=O)/C=C(\O)C(F)(F)C(F)(F)F)cn1 [7h, 4,4,5,5,5-Pentafluoro-3-hydroxy-1-(6-((3-methoxypropyl)amino)pyridin-3-yl)pent-2-en-1-one] | 0.16 ± 0.01 |  | 55 ± 6 |  |  |  | 65 |  | 17 |  |
| O=C(/C=C(\O)C(F)(F)C(F)(F)F)c1ccc(NCC(F)(F)F)nc1 [7i, 4,4,5,5,5-Pentafluoro-3-hydroxy-1-(6-((2,2,2-trifluoroethyl)amino)pyridin-3-yl)pent-2-en-1-one] | 0.21 ± 0.02 |  | 24 ± 6 |  |  |  | 71 | 38 | 9 |  |
| CC(C)CNc1ccc(C(=O)/C=C(\O)C(F)(F)C(F)(F)F)cn1 [7j, 4,4,5,5,5-Pentafluoro-3-hydroxy-1-(6-(isobutylamino)pyridin-3-yl)pent-2-en-1-one] | 0.28 ± 0.03 |  | 30 ± 3 |  |  |  | 61 | 17 | 11 |  |
| O=C(/C=C(\O)C(F)(F)C(F)(F)F)c1ccc(N2CCNCC2)nc1 [7t, 4,4,5,5,5-Pentafluoro-3-hydroxy-1-[6-(piperazin-1-yl)pyridin-3-yl]pent-2-en-1-one] | 17.3 ± 6.5 |  | 858 ± 129 |  |  |  |  |  |  |  |

Source: PMC11513924, “Addressing the Intracellular Vestibule of the Plasmodial Lactate Transporter PfFNT by p-Substituted Inhibitors Amplifies In Vitro Activity” (Journal of Medicinal Chemistry, 2024)
